In general, IC50 refers to the point on the concentration scale where inhibition reaches its midpoint.

Experiment [1] addresses opiate receptors isolated from rat brain. As to the kind of experiment: Opiate binding assay (displacement of 3H-Naloxone). Conditions: 3H-Naloxone 1NM, rat brain membranes, pH 7.4, 25° C., 60 min. The method, then:
(§1) The test compounds were evaluated for their ability to displace the binding of ^3 H-Naloxone to opiate receptors isolated from rat brain. Male rats (Crl:CD)(SD)(BR) obtained from Charles River Laboratories (Portage, Mich.) were sacrificed by cervical dislocation. A purified homogenate of receptor membranes was prepared from the brains according to the method described by Chang and Cuatrecasas. Multiple Opiate Receptors: Enkephalins and Morphine Bind to Receptors of Different Specificity. J. Biol. Chem. 254, 2610-2618 (1979). The brains were homogenized in ten volumes of 0.32 M sucrose and centrifuged twice at 6,000×g for fifteen minutes. Following centrifugation of the supernatants at 40,000×g for thirty minutes, the pellets were resuspended in 5 mM tris HCl, and centrifuged at 6,000×g. The supernatant was centrifuged at 40,000×g. The resuspension in 5 mM tris and centrifugation was repeated twice. The final pellet was resuspended in two volumes of 50 mM tris HCl, (pH 7.4). The homogenate was assayed for protein content according to the method of Itzhaki and Gill (R. E. Itzhaki and D. N. Gill. A Micro-Biuret Method for Estimating proteins Anal. Biochem. 9, 401-410, 1964).
The binding of the test compounds to the receptor membrane preparation was measured using a modification of the method of Pert and Snyder (C. B. Pert and S. H. Snyder. Property of Opiate-Receptor Binding in Rat Brain. Proc. Natl. Acad. Sci. 70, 2243-2247, 1973). The receptor assay was run using a final concentration of 1NM^3 H-Naloxone and 0.5 mg/ml of homogenate protein. Levorphanol (1×10^-5 M) was used as the displacer for non-specific binding. The final concentration of the test compounds was 10^-5 M) The assay was run in 0.05 M tris HCl (pH 7.4). Total assayed volume was 1.0 ml.
Samples were incubated at 25° C. for sixty minutes, filtered over Whatman GF/C glass fiber filters and rinsed twice with 2.4 ml washes of ice-cold buffer. The filters were air dried at 50° C. for thirty minutes. After drying, 10 ml of PCS was added to the vial and radioactivity determined using a Tracore Analytic Mark III liquid scintillation counter with a counting efficiency of 48%.
The IC50 values, the concentration of the test compounds which inhibited ^3 H-Naloxone specific binding to the opiate receptor by 50%, were obtained from log-logit plots of concentration-response curves.
Background: In a radioligand displacement assay an active substance lowers the binding of a labelled ligand.

A further experiment relates to mouse. Nature of the experiment: Writhing assay (phenylbenzoquinone-induced writhing, analgesia). Further details: key: +: The test compound was rated active if the number of writhes in the drug treatment group was significantly less than the number of writhes in the saline treatment group as determined by a one-way analysis of variance. The settings on record: 30 min before phenylbenzoquinone, initial test dose 2 mg/kg. The format is in vivo, Male Charles River albino mice (CD-1/HAM/lLR). The method, then: Male Charles River albino mice (CD-1/HAM/lLR) weighing between 20 and 30 grams were used. Thirty minutes after subcutaneous or intragastric administration of the test compound (0.1 ml/10 gm body weight), 0.025% (w/x) phenylbenzoquinone was injected intraperitoneally (0.1 ml/10 gm body weight). Five minutes later, each mouse was placed in a large glass beaker and the number of writhes that occurred in the subsequent ten minutes is counted. A writhe consisted of dorsoflexion of the back, extension of the hind limbs and strong contraction of the abdominal musculature. The test compound was considered to have produced analgesia in a mouse if the number of writhes elicited by phenylbenzoguinone was equal to or less than 1/2 the median number of writhes recorded for the saline-treated group that day. The results were expressed as the number of mice (out of a possible 10) in which the test compound produced analgesia. […] If the initial test dose of 2 mg/kg inhibited writhing in greater than six out of ten mice, the effect of additional doses was evaluated and an ED50 value was calculated using a maximum likelihood function.

The target in experiment [2] is T1, opiate receptors isolated from rat brain (Rattus norvegicus, UniProt P33535).
T1 construct: A purified homogenate of receptor membranes was prepared from the brains; from tissue; host or cells: brain membranes of male Crl:CD(SD)BR rats (animals from Charles River Laboratories)
Nature of the experiment: Opiate binding assay with (D)Ala^2Glyol^5 Enkephlin as radioactive ligand. The method, then:
as §1, with “Male” for “The test compounds were evaluated for their ability to displace the binding of ^3 H-Naloxone to opiate receptors isolated from rat brain. Male”, “The final pellet was resuspended in two volumes of 50 mM tris HCl, (pH 7.4). The homogenate was assayed for protein content according to the method of Itzhaki and Gill (R. E. Itzhaki and D. N. Gill. A Micro-Biuret Method for Estimating proteins Anal. Biochem. 9, 401-410, 1964).” left out
The binding of the test compounds to the receptor membrane preparation was measured using a modification of the method of Pert and Snyder (C. B. Pert and S. H. Snyder. Property of Opiate-Receptor Binding in Rat Brain. Proc. Natl. Acad. Sci. 70, 2243-2247, 1973). […]
Samples were incubated at 25° C. for sixty minutes, filtered over Whatman GF/C glass fiber filters and rinsed twice with 2.4 ml washes of ice-cold buffer. […] After drying, 10 ml of PCS was added to the vial and radioactivity determined using a Tracore Analytic Mark III liquid scintillation counter with a counting efficiency of 48%. […]

T1 sequence (P33535 whole entry): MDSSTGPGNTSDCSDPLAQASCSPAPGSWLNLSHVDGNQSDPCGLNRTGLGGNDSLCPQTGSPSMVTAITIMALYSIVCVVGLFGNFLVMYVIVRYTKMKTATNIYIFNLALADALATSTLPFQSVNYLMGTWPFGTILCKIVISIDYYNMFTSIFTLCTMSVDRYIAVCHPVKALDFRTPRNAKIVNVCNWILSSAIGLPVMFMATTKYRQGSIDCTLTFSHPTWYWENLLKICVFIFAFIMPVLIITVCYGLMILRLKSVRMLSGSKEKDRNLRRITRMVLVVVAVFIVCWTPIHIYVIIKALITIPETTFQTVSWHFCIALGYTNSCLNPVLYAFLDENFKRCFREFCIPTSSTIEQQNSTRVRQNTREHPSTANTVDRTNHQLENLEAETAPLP

In turn, `Cc1cc(O)cc(C)c1CC(N)C(=O)NCCSCCCc1ccccc1` (racemic) [Example 2, (±)α-amino-4-hydroxy-2,6-dimethyl-N-[2-[(3-phenylpropyl)thio]ethyl]benzenepropanamide] yielded a 50% inhibitory concentration (IC50) in experiment [1] of 2.2 nM.

In the case of `Cc1cc(O)cc(C)c1CC(N)C(=O)NCCS(=O)(=O)CCCc1ccccc1` (racemic) [Example 3, (±)α-amino-4-hydroxy-2,6-dimethyl-N-[2-[(3-phenylpropyl)sulfonyl]ethyl]benzenepropanamide], in the experiment with mouse, the “ACTIVE (writhing assay, subcutaneous dosing)” value (from here on “ACTIVE”) is “+”. In addition, in experiment [1], the IC50 turned out to be 0.8 nM.

In the case of `Cc1cc(O)cc(C)c1CC(N)C(=O)NCC[S+]([O-])CCCc1ccccc1` (racemic) [Example 4, (±)α-amino-4-hydroxy-2,6-dimethyl-N-[2-[(3-phenylpropyl)sulfinyl]ethyl]benzenepropanamide], in the experiment on mouse, the “ACTIVE” value was “+”. The IC50 in experiment [1] came out at 2.8 nM.

In the case of `Cc1cc(O)cc(C)c1CC(N)C(=O)NCCCSCCc1ccccc1` (racemic) [Example 5, (±) α-2,6-dimethyl-N-[3-[(2-phenylethyl)thio]propyl]benzenepropanamide], the “ACTIVE” value with mouse is recorded as “+”. In addition, the half-maximal inhibitory concentration (IC50) in experiment [2] was 3.6 nM.

In turn, `Cc1cc(O)cc(C)c1CC(N)C(=O)NCCCS(=O)(=O)CCc1ccccc1` (racemic) [Example 6, (±)α-amino-4-hydroxy-2,6-dimethyl-N-[3-[(2-phenylethyl)sulfonyl]-propyl]benzenepropanamide] had a half-inhibitory concentration (IC50) in experiment [1] of 0.9 nM.

On to `Cc1cc(O)cc(C)c1CC(N)C(=O)NCCCSCc1ccccc1` (racemic) [Example 7, (±)α-amino-4-hydroxy-2,6-dimethyl-N-[3-[(phenylmethyl)thio]propyl]benzenepropanamide], for which the “ACTIVE” value in the experiment with mouse was “+”. Further, the IC50 in experiment [1] was 21 nM.

Take `Cc1cc(O)cc(C)c1CC(N)C(=O)NCCCCSCc1ccccc1` (racemic) [Example 8, (±)α-amino-4-hydroxy-2,6-dimethyl-N-[4-(phenylmethyl)thio]butyl]benzenepropanamide]: the “ACTIVE” value in the experiment with mouse is reported as “+”.

Consider `Cc1cc(O)cc(C)c1C[C@H](N)C(=O)NCCCSc1ccccc1` [Example 9, (L)α-amino-4-hydroxy-2,6-dimethyl-N-[3-(phenylthio)propyl]benzenepropanamide], for which the IC50 in experiment [2] worked out at 20.9 nM.
